pIC50: −log10 of the molar value.
How the values were obtained:
[1] = target: T1, stromelysin-1 catalytic domain (MMP03) (Homo sapiens, UniProt P08254); experiment: Thiopeptolide assay, stromelysin-1 catalytic domain (SCD, MMP03); type: biochemical; settings: Tables 2, 3, 5, 7; read-out: IC50 MMP 3CD
T1 construct: SCD (stromelysin-1 catalytic domain); made in house; host or cells: Escherichia coli
Experimental: (§1) Hydrolysis of the thiopeptolide substrate Ac-Pro-Leu-Gly-thioester-Leu-Leu-Gly-OEt (Bachem) is used as the primary screen to determine IC50 values for MMP inhibitors. A 100 μL reaction contains 1 mM 5,5'-dithiobis(2-nitrobenzoic acid) (DTNB), 100 μM substrate, 0.1% Brij, enzyme, and inhibitor in the appropriate reaction buffer. Activated full-length enzymes are assayed at 5 nM, Stromelysin Catalytic Domain (SCD) at 10 nM, and Gelatinase A Catalytic Domain (GaCD) at 1 nM. Inhibitors are screened from 100 μM to 1 nM. Full-length enzymes are assayed in 50 mM HEPES, 10 mM CaCl2, pH 7.0; SCD in 50 mM MES, 10 mM CaCl2, pH 6.0; and GaCD in 50 mM MOPS, 10 mM CaCl2, 10 μM ZnCl2, pH 7.0.

[2] = target: T2, MMP07 (Homo sapiens, UniProt P09237); experiment: Thiopeptolide assay, MMP07; type: biochemical; settings: Tables 2, 3, 5, 7; read-out: IC50 MMP-7
T2 construct: made in house; host or cells: Escherichia coli
T2 sequence (P09237 95-267): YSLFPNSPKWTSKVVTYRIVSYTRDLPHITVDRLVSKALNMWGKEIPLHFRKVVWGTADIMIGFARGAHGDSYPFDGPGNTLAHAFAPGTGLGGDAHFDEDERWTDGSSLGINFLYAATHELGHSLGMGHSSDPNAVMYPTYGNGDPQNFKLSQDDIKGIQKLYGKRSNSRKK
Experimental: (§2) MMP01, MMP07, MMP09, and MMP13 activity was assayed in a method similar to MMP02 and MMP03 (SCD and GCD). MMP01 and MMP09 can be obtained from Washington University School of Medicine, St. Louis, Mo. MMP07 can be obtained in accordance with the known procedure set forth by Ye QZ, Johnson L. L., and Baragi V., "Gene Syntheses and Expression in E. coli for PUMP, a Human Matrix Metalloproteinase" Biochem. and Biophys. […] MMP 13 can be obtained in accordance with the known procedure set forth by Freije J. M. P., et al., "Molecular Cloning and Expression of Collegenase-3, a Novel Human Matrix Metalloproteinase Produced by Breast Carcinomas" J. Bio.
as §1

[3] = target: T3, MMP01 (Homo sapiens, UniProt P03956); experiment: Thiopeptolide assay, MMP01; type: biochemical; settings: Tables 2, 3, 5, 7; read-out: IC50 MMP1
T3 construct: purchased Washington University School of Medicine, St. Louis, Mo
T3 sequence (P03956 100-469): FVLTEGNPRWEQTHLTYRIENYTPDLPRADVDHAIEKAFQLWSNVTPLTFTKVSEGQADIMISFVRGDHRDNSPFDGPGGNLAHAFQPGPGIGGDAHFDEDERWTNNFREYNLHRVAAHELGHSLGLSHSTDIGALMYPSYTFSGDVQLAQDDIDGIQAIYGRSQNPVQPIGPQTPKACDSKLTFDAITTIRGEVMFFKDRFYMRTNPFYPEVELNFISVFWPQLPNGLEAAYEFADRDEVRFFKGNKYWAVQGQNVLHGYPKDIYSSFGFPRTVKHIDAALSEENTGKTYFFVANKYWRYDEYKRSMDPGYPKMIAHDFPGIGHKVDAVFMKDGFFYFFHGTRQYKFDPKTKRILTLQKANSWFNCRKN
Experimental: as §2, §1

[4] = system: MMP-13CD; experiment: Thiopeptolide assay, MMP-13CD; type: biochemical, human; settings: Tables 2, 3, 5, 7
Experimental: IC50 values were determined using a thiopeptolide substrate, Ac-Pro-Leu-Gly-thioester-Leu-Leu-Gly-OEt (Ye Q.-Z., Johnson L. L., Hupe D. J., and Baragi V., "Purification and Characterization of the Human Stromelysin Catalytic Domain Expressed in Escherichia coli," Biochemistry, 1992;31:11231-11235). MMP01, MMP07, MMP09, and MMP13 activity was assayed in a method similar to MMP02 and MMP03 (SCD and GCD). MMP01 and MMP09 can be obtained from Washington University School of Medicine, St. Louis, Mo. MMP07 can be obtained in accordance with the known procedure set forth by Ye QZ, Johnson L. L., and Baragi V., "Gene Syntheses and Expression in E. coli for PUMP, a Human Matrix Metalloproteinase" Biochem. and Biophys. Res. Comm., 1992; 186:143-149. MMP 13 can be obtained in accordance with the known procedure set forth by Freije J. M. P., et al., "Molecular Cloning and Expression of Collegenase-3, a Novel Human Matrix Metalloproteinase Produced by Breast Carcinomas" J. Bio. Chem., 1994;269:16766-6773.
as §1, with “7.0. The change in absorbance at 405 riM is monitored on a ThermoMax microplate reader at room temperature continuously for 20 minutes.” for “7.0.”

[5] = target: gelatinase A catalytic domain (MMP02); experiment: Thiopeptolide assay, gelatinase A catalytic domain (GCD, MMP02); type: biochemical; settings: Tables 2, 3, 5, 7; read-out: IC50 MMP-2CD
Experimental: as §1

T1 sequence (P08254 100-272 limits assumed): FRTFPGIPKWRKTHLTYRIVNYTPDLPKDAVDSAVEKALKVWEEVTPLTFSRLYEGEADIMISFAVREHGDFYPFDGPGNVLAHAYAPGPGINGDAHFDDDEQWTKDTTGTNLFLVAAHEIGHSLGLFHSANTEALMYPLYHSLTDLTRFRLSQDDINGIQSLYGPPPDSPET

Compound | pIC50 [1] | pIC50 [2] | pIC50 [3] | pIC50 [4] | pIC50 [5]
O=C(O)C(CCCCNS(=O)(=O)c1ccc(Br)cc1)NS(=O)(=O)c1ccc2oc3ccccc3c2c1 (stereo not shown) [Example D3, 6-(4-Bromo-benzenesulfonylamino)-2-(dibenzofuran-2-sulfonylamino)-hexanoic acid] | 5.07 | < 4.00 | < 4.00 | 4.93 | 5.54
CC(=O)Nc1ccc(S(=O)(=O)NCCCCC(NS(=O)(=O)c2ccc3oc4ccccc4c3c2)C(=O)O)cc1 (stereo not shown) [Example D5, 6-(4-Acetylamino-benzensulfonylamino)-2-(dibenzofuran-2-sulfonylamino)-hexanoic acid] | 5.07 | < 4.00 | < 4.00 | 5.11 | 5.92
O=C(O)C(CCCCNS(=O)(=O)c1ccccc1)NS(=O)(=O)c1ccc2oc3ccccc3c2c1 (stereo not shown) [Example D6, 6-Benzenesulfonylamino-2-(dibenzofuran-2-sulfonylamino)-hexanoic acid] | 5.60 | 4.04 | < 4.00 | 5.48 | 5.85
O=C(O)C(CCCCNS(=O)(=O)c1ccc2ccccc2c1)NS(=O)(=O)c1ccc2oc3ccccc3c2c1 (stereo not shown) [Example D8, 2-(Dibenzofuran-2-sulfonylamino)-6-(naphthalene-2-sulfonylamino)-hexanoic acid] | 4.72 | < 4.00 | < 4.00 | 4.41 | 5.15
O=C(O)C(CCCCNS(=O)(=O)c1cccc2ccccc12)NS(=O)(=O)c1ccc2oc3ccccc3c2c1 (stereo not shown) [Example D9, 2-(Dibenzofuran-2-sulfonylamino)-6-(naphthalene-1-sulfonylamino)-hexanoic acid] | 4.85 | < 4.00 | < 4.00 | 4.93 | 5.37
O=C(O)C(CCCCNS(=O)(=O)C=Cc1ccccc1)NS(=O)(=O)c1ccc2oc3ccccc3c2c1 (stereo not shown) [Example D10, 2-(Dibenzofuran-2-sulfonylamino)-6-(2-phenyl-ethenesulfonylamino)-hexanoic acid] | 5.38 | < 4.00 | < 4.00 | 4.95 | 5.60
O=C(CCC(NS(=O)(=O)c1ccc2oc3ccccc3c2c1)C(=O)O)NCCc1ccncc1 (stereo not shown) [Example F1, 2-(Dibenzofuran-2-sulfonylamino)-4-(2-pyridin-4-yl-ethylcarbamoyl)-butyric acid] | 5.72 | 4.21 | < 4.00 | 5.39 | 5.85
CCC(C)CNC(=O)CCC(NS(=O)(=O)c1ccc2oc3ccccc3c2c1)C(=O)O (stereo not shown) [Example F2, 2-(Dibenzofuran-2-sulfonylamino)-4-(2-methyl-butylcarbamoyl)-butyric acid] | 5.74 | 4.58 | < 4.00 | 5.92 | 6.05
CC(O)CNC(=O)CCC(NS(=O)(=O)c1ccc2oc3ccccc3c2c1)C(=O)O (stereo not shown) [Example F3, 2-(Dibenzofuran-2-sulfonylamino)-4-(2-hydroxy-propylcarbamoyl)-butyric acid] | 5.06 | < 4.00 | < 4.00 | 4.62 | 5.41
CCCc1ccc(NC(=O)CCC(NS(=O)(=O)c2ccc3oc4ccccc4c3c2)C(=O)O)cc1 (stereo not shown) [Example F4, 2-(Dibenzofuran-2-sulfonylamino)-4-(4-propyl-phenylcarbamoyl)-butyric acid] | 6.22 | 4.37 | 4.03 | 5.66 | 6.52
O=C(CCC(NS(=O)(=O)c1ccc2oc3ccccc3c2c1)C(=O)O)NCC(c1ccccc1)c1ccccc1 (stereo not shown) [Example F5, 2-(Dibenzofuran-2-sulfonylamino)-4-(2,2-diphenyl-ethylcarbamoyl)-butyric acid] | 6.00 | 4.39 | < 4.00 | 6.15 | 6.15
O=C(CCC(NS(=O)(=O)c1ccc2oc3ccccc3c2c1)C(=O)O)NC1CC1 (stereo not shown) [Example F6, 4-Cyclopropylcarbamoyl-2-(dibenzofuran-2-sulfonylamino)-butyric acid] | 6.70 | 4.83 | 4.16 | 6.52 | 6.70
O=C(CCC(NS(=O)(=O)c1ccc2oc3ccccc3c2c1)C(=O)O)NCc1cccs1 (stereo not shown) [Example F7, 2-(Dibenzofuran-2-sulfonylamino)-4-[(thiophen-2-ylmethyl)-carbamoyl]-butyric acid] | 6.40 | 4.91 | 4.39 | 6.52 | 6.52
CC(C)CC(C)NC(=O)CCC(NS(=O)(=O)c1ccc2oc3ccccc3c2c1)C(=O)O (stereo not shown) [Example F8, 2-(Dibenzofuran-2-sulfonylamino)-4-(1,3-dimethyl-butylcarbamoyl)-butyric acid] | 6.40 | 5.15 | 4.21 | 6.70 | 7.00
CN(C)CCNC(=O)CCC(NS(=O)(=O)c1ccc2oc3ccccc3c2c1)C(=O)O (stereo not shown) [Example F9, 2-(Dibenzofuran-2-sulfonylamino)-4-(2-dimethylamino-ethylcarbamoyl)-butyricacid] | 4.65 | < 4.00 | < 4.00 | 4.41 | 5.01
O=C(CCC(NS(=O)(=O)c1ccc2oc3ccccc3c2c1)C(=O)O)NCc1ccccc1 (stereo not shown) [Example F10, 4-Benzylcarbamoyl-2-(dibenzofuran-2-sulfonylamino)-butyric acid] | 5.57 | 4.13 | < 4.00 | 5.72 | 5.68
O=C(CCC(NS(=O)(=O)c1ccc2oc3ccccc3c2c1)C(=O)O)NCCc1cccs1 (stereo not shown) [Example F11, 2-(Dibenzofuran-2-sulfonylamino)-4-(2-thiophen-2-yl-ethylcarbamoyl)-butyricacid] | 5.57 | < 4.00 | < 4.00 | 5.44 | 5.68
